Laboratory results published in patent US20220282304A1, “SAME-SAMPLE ANTIBIOTIC SUSCEPTIBILITY TEST AND RELATED COMPOSITIONS, METHODS AND SYSTEMS” (CALIFORNIA INSTITUTE OF TECHNOLOGY, priority 2021, published 2022).

Tested on: Escherichia coli K12
Assay: Digital same-sample filtration AST at four exposure durations (Example 8)
Format: cell-based
Conditions: for Both (number of wells) / Empty (number of wells) / Extracellular only (number of wells) / Intracellular only (number of wells) / Intact (most likely number of cells) / Killed (most likely number of cells): Treated 1.0 μg ETP/mL; for Both (number of wells) / Empty (number of wells) / Extracellular only (number of wells) / Intracellular only (number of wells): 12 partitions, qPCR; for Intact (most likely number of cells) / Killed (most likely number of cells): assuming one cell per non-empty sample
Procedure: The inoculum was small enough that no detectable difference in the sample's optical density at 600 mm (OD600) was detectable by a spectrophotometer with a sensitivity of 0.01 absorbance units. After an incubation at 37° C., the media became turbid with an OD600 of 0.34 absorbance units after 3.08 hours of incubation.
In this experiment, the number and volume of sample partitions was restricted, for logistical reasons, to 96 partitions 10 μL in volume, specifically the wells of a 96-well plate. A goal was chosen of having a >98% chance of ending up with at least 48 empty partitions. When all partitions are the same volume, the following formula relates the expected number of empty partitions, the partition volume, and the density of cells.
N is the total number of partitions, n is the number of empty partitions, V is the partition volume, D is the density of cells, and t is a threshold probability chosen by the practitioner. In order to achieve digital sample partitioning with the available 96-well plate, each 10 μL sample of the specimen needed to contain between 0.02 and 2.5 cells on average. In this experiment, a density of 1 cells per sample were targeted. Due to systematic bias in the conversion of OD600 to cell density, the actual density achieved in the exposure was closer to 0.281 cells per sample. The batch culture specimen itself was diluted to a density of 28.1 CFU/mL (0.0281 cells/μL) to achieve the target cells/sample density.
To begin the AST protocol, the contrived clinical specimen (containing 28.1 CFU/mL) was physically partitioned into the 96 samples by transferring 10 μL of the specimen, in 96 separate transfers (actually […] with a multichannel pipette), to each well of a separable 96-well microtiter plate. Then, the entire plate was sealed with a RNase/DNase-free plastic, adhesive sealing membrane.
Each well of the 96-well microtiter plate contained 15 μL of Mueller-Hinton Broth (MHB) growth media, placed there before the specimen was partitioned. Half of the wells (48) contained 0 μg/mL of dissolved ETP antibiotic and served as reference condition antibiotic exposures. The other half of the wells contained 1.67 μg/mL of ETP (for a final concentration of 1.0 μg/mL) and served as 48 treated condition antibiotic exposures. The separable plate comprised 4 detachable sections bearing 3 columns and 8 rows of wells.
The treated and reference conditions were arranged so that each of the four groups of wells contained 12 treated and 12 reference conditions. In total, there would eventually be eight experimental conditions: 4 exposure durations of 0, 30, 60, and 120 min, each with 12 treated and 12 reference conditions.
Immediately after the specimen had been partitioned, one section (24 wells in total) of the separable 96-well plate was detached to serve as the 0-minute set of conditions. The rest of the separable 96-well plate was incubated at 37° C. Then, the following step was repeated for each time point of 0, 30, 60, and 120 minutes.
The entire volume of each antibiotic exposure was transferred to a Millipore® 96-well sterile polystyrene MultiScreenHTS® filter plate (Millipore-Sigma MSGVS2210). Each well of the filter plate contained a hydrophilic polyvinylidene fluoride (PVDF) filter membrane with a 0.22 μm pore size. A 96-well polypropylene microtiter plate was affixed to the bottom of the filter plate. The filter plate was promptly centrifuged at 2200 relative centrifugal force for 3 minutes to speed the passage of the antibiotic exposure sample through the filter and into 96-well microtiter plate. The collected fluid was called the “filtrate.” […]

## C[C@@H](O)[C@H]1C(=O)N2C(C(=O)O)=C(S[C@@H]3CN[C@H](C(=O)Nc4cccc(C(=O)O)c4)C3)[C@H](C)[C@H]12 [ETP, ertapenem]
1.0 μg/mL ETP, overall p-value vs 0.005
  susceptibility call: susceptible
Exposure duration 0 min
  Both (number of wells): 0
  Empty (number of wells): 12
  Extracellular only (number of wells): 0
  Intracellular only (number of wells): 0
  Intact (most likely number of cells): 0
  Killed (most likely number of cells): 0
Exposure duration 30 min
  Both (number of wells): 0
  Empty (number of wells): 7
  Extracellular only (number of wells): 4
  Intracellular only (number of wells): 1
  Intact (most likely number of cells): 1
  Killed (most likely number of cells): 4
Exposure duration 60 min
  Both (number of wells): 0
  Empty (number of wells): 8
  Extracellular only (number of wells): 4
  Intracellular only (number of wells): 0
  Intact (most likely number of cells): 0
  Killed (most likely number of cells): 4
Exposure duration 120 min
  Both (number of wells): 0
  Empty (number of wells): 8
  Extracellular only (number of wells): 4
  Intracellular only (number of wells): 0
  Intact (most likely number of cells): 0
  Killed (most likely number of cells): 4
